One assay concerns the target T1, DLK (Mus musculus, UniProt Q60700).
T1 construct: A full length cDNA of human MLK-3, MLK-2, or mouse DLK; expressed in transfected cells; host or cells: Cos7
T1 sequence (Q60700 1-888): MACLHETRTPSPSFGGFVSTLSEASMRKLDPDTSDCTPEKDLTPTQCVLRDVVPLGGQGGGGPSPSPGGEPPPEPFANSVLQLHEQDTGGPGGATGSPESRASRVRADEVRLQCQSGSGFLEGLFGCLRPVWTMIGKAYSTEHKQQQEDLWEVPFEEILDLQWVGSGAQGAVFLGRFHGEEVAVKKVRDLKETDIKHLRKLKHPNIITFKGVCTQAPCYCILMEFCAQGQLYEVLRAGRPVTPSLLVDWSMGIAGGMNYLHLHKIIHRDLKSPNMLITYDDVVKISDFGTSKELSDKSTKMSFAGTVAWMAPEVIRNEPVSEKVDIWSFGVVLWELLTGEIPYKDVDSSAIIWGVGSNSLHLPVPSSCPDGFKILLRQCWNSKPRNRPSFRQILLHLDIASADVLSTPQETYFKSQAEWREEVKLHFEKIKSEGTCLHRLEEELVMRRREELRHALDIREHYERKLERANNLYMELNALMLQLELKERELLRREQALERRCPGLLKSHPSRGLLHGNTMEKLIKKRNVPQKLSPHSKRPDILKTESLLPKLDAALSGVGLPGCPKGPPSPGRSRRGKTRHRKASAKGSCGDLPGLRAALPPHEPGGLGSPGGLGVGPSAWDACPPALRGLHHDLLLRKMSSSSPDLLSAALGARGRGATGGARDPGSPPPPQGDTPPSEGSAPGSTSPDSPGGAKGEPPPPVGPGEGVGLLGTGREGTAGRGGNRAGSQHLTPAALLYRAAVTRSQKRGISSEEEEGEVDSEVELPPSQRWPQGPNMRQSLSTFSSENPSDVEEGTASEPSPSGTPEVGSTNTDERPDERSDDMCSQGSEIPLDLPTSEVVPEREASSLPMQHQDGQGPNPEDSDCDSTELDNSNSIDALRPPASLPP
Briefly: JNK activity (immunoprecipitation/kinase assay) in Cos7 cells overexpressing DLK and HA-JNK1. The assay is classed as cell-based. The following applies: COS-7, 500 nM for 2 hr; replicate values in one cell; read-out: Cos-7 Cells DLK % JNK Inhib. @ 500nM. As for the experimental part:
Cos7 cells were plated at 80% confluency and transfected with 2 ug each of cDNA constructs using lipofectamine as recommended by the provider (Gibco BRL, Gaithersburg, MD). A full length cDNA of human MLK-3, MLK-2, or mouse DLK or a partial human MLK-1 as described above, and a full length Hemagluttinin A-tagged human JNK1, kindly provided by J. Silvio Gutkind (NIH, Bethesda, MD), were subcloned into the pcDNA3 vector (Invitrogen, San Diego, CA). After a 48 hr transfection, the cells were treated with 0.025% DMSO or 500 nM of the indicated compounds for 2 hr followed by lysis in 0.4 ml Triton buffer (1% Triton X-100, 50 mM sodium chloride, 10 mM Tris (pH 7.6), 0.1 % bovine serum albumin, 30 uM sodium pyrophosphate, 50 mM sodium fluoride, 20 ug/ml aprotinin, 1 mM phenylmethylsulfonylfluoride, 1 mM sodium vanadate). JNK activity from the lysate was assayed by an immunoprecipitation/kinase assay as described below.
Lysate from Cos 7 cells was measured for protein concentration using the Micro BCA kit from Pierce (Rockford, IL) and equal amounts of protein were immunoprecipitated with the HA antibody for 1 hr at 4°C. […] The gel was dried and quantitation of radioactivity in the AP-1 substrate was performed on a Molecular Dynamics Phosphorimager (Sunnyvale, Ca.). […]

Another assay deals with T2, MLK-3 (Homo sapiens, UniProt Q16584).
T2 construct: A full length cDNA of human MLK-3, MLK-2, or mouse DLK; expressed in transfected cells; host or cells: Cos7
T2 sequence (Q16584 whole entry): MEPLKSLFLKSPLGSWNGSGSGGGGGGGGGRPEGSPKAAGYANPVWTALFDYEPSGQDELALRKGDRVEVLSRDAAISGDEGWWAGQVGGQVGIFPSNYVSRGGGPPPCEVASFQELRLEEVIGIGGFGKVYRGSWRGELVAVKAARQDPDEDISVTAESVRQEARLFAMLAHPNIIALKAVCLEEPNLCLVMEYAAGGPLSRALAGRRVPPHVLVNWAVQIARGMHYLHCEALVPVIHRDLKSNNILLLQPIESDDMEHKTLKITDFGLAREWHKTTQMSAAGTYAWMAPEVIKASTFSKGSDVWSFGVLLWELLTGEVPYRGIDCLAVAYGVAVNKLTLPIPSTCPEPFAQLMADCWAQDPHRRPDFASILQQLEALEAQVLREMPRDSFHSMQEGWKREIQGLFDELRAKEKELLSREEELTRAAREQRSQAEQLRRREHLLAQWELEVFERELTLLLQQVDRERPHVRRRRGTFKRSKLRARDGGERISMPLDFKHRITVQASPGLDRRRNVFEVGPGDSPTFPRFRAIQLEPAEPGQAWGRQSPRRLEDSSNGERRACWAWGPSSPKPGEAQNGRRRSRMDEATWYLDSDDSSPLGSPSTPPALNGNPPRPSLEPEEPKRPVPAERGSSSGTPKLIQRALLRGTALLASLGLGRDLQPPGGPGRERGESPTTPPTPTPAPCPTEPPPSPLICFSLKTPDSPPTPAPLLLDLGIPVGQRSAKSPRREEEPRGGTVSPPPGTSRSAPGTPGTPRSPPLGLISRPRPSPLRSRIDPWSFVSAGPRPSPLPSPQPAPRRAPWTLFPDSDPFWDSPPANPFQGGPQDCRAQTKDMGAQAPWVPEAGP
Briefly: JNK activity (immunoprecipitation/kinase assay) in Cos7 cells overexpressing MLK-3 and HA-JNK1. It is filed as cell-based. The following applies: COS-7, 500 nM for 2 hr; replicate values in one cell; read-out: Cos-7 Cells MLK-3 % JNK Inhib. @ 500nM. The method, then: Cos7 cells were plated at 80% confluency and transfected with 2 ug each of cDNA constructs using lipofectamine as recommended by the provider (Gibco BRL, Gaithersburg, MD). A full length cDNA of human MLK-3, MLK-2, or mouse DLK or a partial human MLK-1 as described above, and a full length Hemagluttinin A-tagged human JNK1, kindly provided by J. Silvio Gutkind (NIH, Bethesda, MD), were subcloned into the pcDNA3 vector (Invitrogen, San Diego, CA). […] JNK activity from the lysate was assayed by an immunoprecipitation/kinase assay as described below.
Lysate from Cos 7 cells was measured for protein concentration using the Micro BCA kit from Pierce (Rockford, IL) and equal amounts of protein were immunoprecipitated with the HA antibody for 1 hr at 4°C. Immunoprecipitates were pelleted by centrifugation in a microfuge centrifuge for 20 sec, resuspended in Triton buffer, washed by centrifugation 2 more times, followed by a final wash in Kinase buffer (20 mM Hepes pH 7.4,20 mM MgCl2, 2 mM dithiothreitol, 0.1 mM sodium vanadate). The immunoprecipitate was resuspended in kinase buffer containing 1 µM ATP and 5 µCi [γ-^32P]ATP and substrate (1 µg/sample of AP-1 ) and incubated for 15 min at 30°C. […] Samples were heated to 80°C for 5 min and loaded onto 10% SDS-polyacrylamide gels. Proteins were separated by electrophoresis. The gel was dried and quantitation of radioactivity in the AP-1 substrate was performed on a Molecular Dynamics Phosphorimager (Sunnyvale, Ca.).
To determine whether inhibition of the JNK pathway regulated by these kinases correlated with neurotrophic compounds, we evaluated the effect of compounds on JNK activity in Cos7 cells overexpressing HA-JNK and MLK3. After a 48 hr transfection period, the cells were incubated with compounds at 500 nM for 2hr followed by cellular lysis. Lysate was immunoprecipitated and kinase activity measured as previously described. […]

`COC(=O)C1(O)CC2OC1(C)n1c3ccccc3c3c4c(c5c6ccccc6n2c5c31)C(=O)NC4` (centres unmarked) [III^1]: the results for the inhibition at 0.5 µM at DLK and on MLK-3 were 63% and 99%, respectively.
